The results in this text go back to patent US20090298708A1, “2'-DEOXY-2'-FLUORO-BETA-D-ARABINONUCLEOSIDE 5'-TRIPHOSPHATES AND THEIR USE IN ENZYMATIC NUCLEIC ACID SYNTHESIS” (priority 2006, published 2009).

The target of one experiment is T1, MMLV-RT (Moloney murine leukemia virus, UniProt P03355).
T1 construct: Reverse transcriptases (RT): • MMLV-RT (MMLV or MM; source: Fermentas); purchased Fermentas
Description: Primer extension assay with MMLV-RT. The note with it: for Enzymatic activity during primer extension reactions: plus dATP, dGTP; for Order of efficiency of incorporation: DNA template PF22 (T/U triphosphates) or PF24 (C triphosphates), three contiguous units; for Incorporation of three 2′F-araTTP / 2′F-araCTP (incorporation efficiency): DNA template PF22 (2′F-araTTP) or PF24 (2′F-araCTP). Also on record: key to Incorporation of three 2′F-araTTP / 2′F-araCTP (incorporation efficiency) / Enzymatic activity during primer extension reactions: ++++: excellent (no pausing observed); +++: very good (with slight pausing); ++: Good, full-length products with significant pausing; +: significant pausing, no full-length product but at least one 2′F-araN incorporation detected. The format is biochemical. The source says:
(§1) Primer extension assays were used to assess the incorporation of 2′F-araNTP on the various DNA templates (Table 1). The DNA primer (PF20) was first radioactively labeled at the 5′-hydroxyl terminus with a radioactive phosphorus probe and the enzyme T4 polynucleotide kinase (T4 PNK) (see Example 1 for General Methods). To assess the incorporation of 2′F-araNTPs, the primer and template were annealed, and the nucleoside 5′-triphosphates added in the presence of enzyme under the conditions specified in Table 2. Time points were obtained by analyzing small aliquots from the reaction mixture through polyacryamide gel electrophoresis (PAGE) and autoradiography.
(§2) Primer extension assays were used to assess the incorporation efficiency of contiguous 2′F-ara(T/C)TPs compared to 2′F-r(U/C)TP on a DNA template (e.g. PF22 or PF24). To this end, a DNA template (e.g. PF22: FIGS. 15, 16, 17A, 18, 21A; PF24: FIGS. 17B, 19, 20, 21B), primer and the appropriate NTPs (e.g. combination of dATP/dCTP/dGTP/ and NTP, where N=dT, 2′F-araT, 2′F-rU, or rU (FIGS. 15, 16, 17A, 18, 21A); or combination of dATP/dGTP/dTTP/ and NTP, where N=dC, 2′F-araC, 2′F-rC, or rC (FIGS. 17B, 19, 20, 21B)), were incubated in the presence one of MMLV-RT, 9N, HIV or DV polymerase. The protocols and conditions are described in Example 2 and Table 2.
(§3) Unless otherwise noticed in the Examples described below, the conditions used in the primer extension assays, such as dNTP concentration, reaction temperatures, concentration of Mg^2+, and reaction buffers (provided by the manufacturers, except for the HIV buffer which was prepared in-house) are shown in Table 2.
(§4) Primer extension assays were used to assess the incorporation of 2′F-araTTP on the DNA template (PF22). The DNA primer (PF20) was first radioactively labeled at the 5′-hydroxyl terminus with a radioactive phosphorus probe and the enzyme T4 polynucleotide kinase (T4 PNK) according to the manufacturer's specifications (MBI Fermentas Life Sciences, Burlington, ON). Incorporation of the ^32P label was accomplished in reaction mixtures consisting of DNA substrate (200 pmol), 2 μl loxreaction buffer (Buffer A for forward reaction: 500 mM Tris-HCl, pH 7.6 at 25° C., 100 mM MgCl2, 50 mM DTT, 1 mM spermidine and 1 mM EDTA), 1 μl T4 PNK enzyme solution (10 U/1 μl in a solution of 20 mM Tris-HCl, pH 7.5, 25 mM KCl, 0.1 mM EDTA, 2 mM DTT and 50% glycerol), 6 μl [γ-^32P]-ATP solution (6000 Ci/mmol, 10 mCi/ml; Amersham Biosciences, Inc.) and autoclaved sterile water to a final volume of 20 μl. The reaction mixture was incubated for about 45-60 min at 37° C., followed by a second incubation for 10 min at 95° C. to heat denature and deactivate the kinase enzyme. The solution was purified according to a standard protocol and the isolated yield of 5′-^32P-DNA following gel extraction averages 50%. The pure labeled samples were kept at −20° C. for future use.
(§5) Usually 2 or 3 folds of cold (unlabeled) DNA primer were combined with the radioactive primer. Then primer to template was mixed together with the final concentration at 85 nM for the primer and 255 nM for the template (i.e. the primer:template=1:3 molar ratio). The primer and template were heated at 95° C. for 5 min and annealed at 4° C. for at least two hours before use. In an Eppendorf tube, the following reagents, 5× or 10× buffer, nucleoside 5′-triphosphates (DATP, dGTP, dCTP, 2′F-araTTP at the same concentrations; see legend of FIG. 2), water, the primer and template mixture, were added together according to pre-calculated reaction volume (20 μL) and concentrations (see reaction conditions in Table 2). Mineral oil (20 μL) was usually used to prevent evaporation. The reaction mixture was incubated at either 37° C. or 55° C. and one of the various enzymes tested was added to initiate the primer extension reactions. […]

Another experiment addresses T2, HIV-1 RT (recombinant) (Human immunodeficiency virus type 1 group M subtype B, UniProt P04585).
T2 construct: Reverse transcriptases (RT): • MMLV-RT (MMLV or MM; source: Fermentas); • HIV-1 RT (recombinant); purchased Worthington Biochemical Corp
The experiment can be described thus: Primer extension assay with HIV-1 RT. The note with it: for Incorporation of three 2′F-araTTP / 2′F-araCTP (incorporation efficiency) / Order of efficiency of incorporation / Enzymatic activity during primer extension reactions: 37° C.; for Incorporation of three 2′F-araTTP / 2′F-araCTP (incorporation efficiency): DNA template PF22 (2′F-araTTP) or PF24 (2′F-araCTP); for Order of efficiency of incorporation: DNA template PF22 (T/U triphosphates) or PF24 (C triphosphates), three contiguous units; for Enzymatic activity during primer extension reactions: plus dATP, dGTP. The format is biochemical. On the set-up: key to Incorporation of three 2′F-araTTP / 2′F-araCTP (incorporation efficiency) / Enzymatic activity during primer extension reactions: ++++: excellent (no pausing observed); +++: very good (with slight pausing); ++: Good, full-length products with significant pausing; +: significant pausing, no full-length product but at least one 2′F-araN incorporation detected.
Text: as §1, §2, §3, §4, §5

With `Nc1ccn([C@@H]2O[C@H](COP(=O)(O)OP(=O)(O)OP(=O)(O)O)[C@@H](O)[C@@H]2F)c(=O)n1` [2′F-araCTP, 1-(2-deoxy-2-fluoro-β-D-arabinofuranosyl)cytosine 5′-triphosphate], the “Enzymatic activity during primer extension reactions” value is recorded as “+++” on MMLV-RT (Example 3, DNA template PF24, 3x 2′F-araCTP, dTTP, MMLV, 37° C.) and “++++” at HIV-1 RT (recombinant) (Example 3, DNA template PF24, 3x 2′F-araCTP, dTTP). The “Order of efficiency of incorporation” value at MMLV-RT (MMLV-RT, 37° C.) was “dCTP~2′F-rCTP ≧ 2′F-araCTP > CTP”; at HIV-1 RT (recombinant), “dCTP~2′F-rCTP ≧ 2′F-araCTP > CTP”. For the same molecule, the premature products entry at MMLV-RT (MMLV-RT, DNA template PF24, after 60 mins, 37° C.) was “ca. 90%”. Further, the “Incorporation of three 2′F-araTTP / 2′F-araCTP (incorporation efficiency)” value on MMLV-RT (MMLV, 37° C.) is “++++”; on HIV-1 RT (recombinant), “++++”.

In the case of `Cc1cn([C@@H]2O[C@H](COP(=O)(O)OP(=O)(O)OP(=O)(O)O)[C@@H](O)[C@@H]2F)c(=O)[nH]c1=O` [2′F-araTTP, 1-(2-deoxy-2-fluoro-β-D-arabino-furanosyl)thymine 5′-triphosphate], the “Enzymatic activity during primer extension reactions” value is recorded as “+++” on MMLV-RT (Example 2, DNA template PF22, 3x 2′F-araTTP, dCTP, MMLV, 37° C.) and “++++” on HIV-1 RT (recombinant) (Example 2, DNA template PF22, 3x 2′F-araTTP, dCTP). The “Order of efficiency of incorporation” value at MMLV-RT (MMLV-RT, 37° C.) is “dTTP > 2′F-araTTP > 2′F-rUTP > UTP”; at HIV-1 RT (recombinant) it was “dTTP > 2′F-araTTP > 2′F-rUTP > UTP”. Further, the “Incorporation of three 2′F-araTTP / 2′F-araCTP (incorporation efficiency)” value was “+++” at MMLV-RT (MMLV, 37° C.) and “++++” on HIV-1 RT (recombinant). For the same molecule, the “substrate property for MMLV (second incorporations of modified triphosphates)” value at MMLV-RT (MMLV, DNA template PF22, compared to 2′F-rUTP and rUTP) is given as “best substrate”. Moreover, the “substrate property for HIV RT” value at HIV-1 RT (recombinant) (DNA template PF22, compared to 2′F-rUTP and rUTP) was “excellent substrate”.

As to `Nc1ccn([C@@H]2O[C@H](COP(=O)(O)OP(=O)(O)OP(=O)(O)O)[C@@H](O)[C@H]2F)c(=O)n1` [2′F-rCTP, 1-(2-deoxy-2-fluoro-β-D-ribofuranosyl) cytosine 5′-triphosphate, reference compound], the “Order of efficiency of incorporation” value at MMLV-RT (MMLV-RT, 37° C.) is given as “dCTP~2′F-rCTP ≧ 2′F-araCTP > CTP”; on HIV-1 RT (recombinant), “dCTP~2′F-rCTP ≧ 2′F-araCTP > CTP”. In addition, the full-length product on MMLV-RT (MMLV-RT, DNA template PF24, 37° C.) is recorded as approximately 100%.

As to `O=c1ccn([C@@H]2O[C@H](COP(=O)(O)OP(=O)(O)OP(=O)(O)O)[C@@H](O)[C@H]2F)c(=O)[nH]1` [2′F-rUTP, 1-(2-deoxy-2-fluoro-β-D-ribo-furanosyl)uracil 5′-triphosphate, reference compound], the “Order of efficiency of incorporation” value on MMLV-RT (MMLV-RT, 37° C.) is “dTTP > 2′F-araTTP > 2′F-rUTP > UTP”; at HIV-1 RT (recombinant) it was “dTTP > 2′F-araTTP > 2′F-rUTP > UTP”.

In the case of `Nc1ccn([C@H]2C[C@H](O)[C@@H](COP(=O)(O)OP(=O)(O)OP(=O)(O)O)O2)c(=O)n1` [dCTP], the “Order of efficiency of incorporation” value on MMLV-RT (MMLV-RT, 37° C.) is given as “dCTP~2′F-rCTP ≧ 2′F-araCTP > CTP”; at HIV-1 RT (recombinant) it was “dCTP~2′F-rCTP ≧ 2′F-araCTP > CTP”.

For the molecule `Cc1cn([C@H]2C[C@H](O)[C@@H](COP(=O)(O)OP(=O)(O)OP(=O)(O)O)O2)c(=O)[nH]c1=O` [dTTP, reference compound], the “Order of efficiency of incorporation” value on MMLV-RT (MMLV-RT, 37° C.) was “dTTP > 2′F-araTTP > 2′F-rUTP > UTP”; at HIV-1 RT (recombinant) it was “dTTP > 2′F-araTTP > 2′F-rUTP > UTP”.
